Like-named read-outs stand apart in the source and are kept apart here.
Biological target: PRC2 complex (EZH2 Y641F/EED/SUZ12/RbAp48/AEBP2) (Homo sapiens (Human), UniProt Q15910, Y641F)
Assay: Activity of a compound to PRC2 complex (EZH2 Y641F), HTRF
[1] = read-out: IC50 (EZH2_Y641F), EZH2 Y641F PRC2 complex, HTRF, class symbols

Sequence of PRC2 complex (EZH2 Y641F/EED/SUZ12/RbAp48/AEBP2) (Q15910 whole entry Y641F): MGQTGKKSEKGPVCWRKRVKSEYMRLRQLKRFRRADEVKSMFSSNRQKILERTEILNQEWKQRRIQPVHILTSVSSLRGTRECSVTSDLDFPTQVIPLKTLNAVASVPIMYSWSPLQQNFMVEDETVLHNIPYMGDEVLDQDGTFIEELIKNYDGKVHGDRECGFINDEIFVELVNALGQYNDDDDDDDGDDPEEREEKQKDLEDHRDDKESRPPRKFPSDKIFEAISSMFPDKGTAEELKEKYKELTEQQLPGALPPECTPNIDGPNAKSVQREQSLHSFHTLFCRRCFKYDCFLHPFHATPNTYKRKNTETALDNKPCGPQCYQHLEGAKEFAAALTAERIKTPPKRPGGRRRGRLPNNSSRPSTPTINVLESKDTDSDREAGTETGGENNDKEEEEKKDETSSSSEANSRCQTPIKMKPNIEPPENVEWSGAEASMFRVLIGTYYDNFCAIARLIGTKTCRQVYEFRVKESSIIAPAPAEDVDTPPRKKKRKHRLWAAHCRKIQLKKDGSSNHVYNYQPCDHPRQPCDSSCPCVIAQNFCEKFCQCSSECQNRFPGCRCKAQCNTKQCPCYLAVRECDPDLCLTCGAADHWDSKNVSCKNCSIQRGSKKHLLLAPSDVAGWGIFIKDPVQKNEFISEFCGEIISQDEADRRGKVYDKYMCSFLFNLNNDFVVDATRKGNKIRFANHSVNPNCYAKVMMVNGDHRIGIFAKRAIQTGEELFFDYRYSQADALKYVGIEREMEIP
Sequence of PRC2 complex (EZH2 Y641F/EED/SUZ12/RbAp48/AEBP2) (O75530 whole entry partner): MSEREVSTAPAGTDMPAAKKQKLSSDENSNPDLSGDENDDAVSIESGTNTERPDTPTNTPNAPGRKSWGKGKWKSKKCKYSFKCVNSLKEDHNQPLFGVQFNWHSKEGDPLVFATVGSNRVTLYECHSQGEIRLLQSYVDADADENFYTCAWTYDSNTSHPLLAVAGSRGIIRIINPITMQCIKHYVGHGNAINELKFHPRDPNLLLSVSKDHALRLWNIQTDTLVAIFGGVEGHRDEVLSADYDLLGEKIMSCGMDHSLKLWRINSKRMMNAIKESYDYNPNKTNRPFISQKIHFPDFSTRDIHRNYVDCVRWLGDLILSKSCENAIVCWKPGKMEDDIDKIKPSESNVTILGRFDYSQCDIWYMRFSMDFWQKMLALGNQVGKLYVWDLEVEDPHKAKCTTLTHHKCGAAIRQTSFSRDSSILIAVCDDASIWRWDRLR
Sequence of PRC2 complex (EZH2 Y641F/EED/SUZ12/RbAp48/AEBP2) (Q15022 whole entry partner): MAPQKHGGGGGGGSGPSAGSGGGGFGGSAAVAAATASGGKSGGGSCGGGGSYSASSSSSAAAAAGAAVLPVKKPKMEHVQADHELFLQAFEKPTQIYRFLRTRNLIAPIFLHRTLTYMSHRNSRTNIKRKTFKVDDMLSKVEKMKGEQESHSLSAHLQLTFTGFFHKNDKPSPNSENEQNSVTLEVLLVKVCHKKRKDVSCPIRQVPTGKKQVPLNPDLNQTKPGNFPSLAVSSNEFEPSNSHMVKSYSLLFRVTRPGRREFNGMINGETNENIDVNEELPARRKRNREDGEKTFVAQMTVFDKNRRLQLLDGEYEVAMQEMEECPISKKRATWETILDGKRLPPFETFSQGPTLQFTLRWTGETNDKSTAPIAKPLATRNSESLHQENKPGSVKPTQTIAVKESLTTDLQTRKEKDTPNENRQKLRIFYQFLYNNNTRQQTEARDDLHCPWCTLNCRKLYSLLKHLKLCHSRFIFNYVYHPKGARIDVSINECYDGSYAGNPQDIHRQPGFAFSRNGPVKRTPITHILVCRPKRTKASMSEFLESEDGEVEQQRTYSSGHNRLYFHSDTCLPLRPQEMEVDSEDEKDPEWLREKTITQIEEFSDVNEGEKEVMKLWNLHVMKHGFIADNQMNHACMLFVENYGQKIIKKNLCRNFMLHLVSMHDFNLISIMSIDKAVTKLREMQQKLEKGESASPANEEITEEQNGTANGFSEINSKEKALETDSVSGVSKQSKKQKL
Sequence of PRC2 complex (EZH2 Y641F/EED/SUZ12/RbAp48/AEBP2) (Q09028 whole entry partner): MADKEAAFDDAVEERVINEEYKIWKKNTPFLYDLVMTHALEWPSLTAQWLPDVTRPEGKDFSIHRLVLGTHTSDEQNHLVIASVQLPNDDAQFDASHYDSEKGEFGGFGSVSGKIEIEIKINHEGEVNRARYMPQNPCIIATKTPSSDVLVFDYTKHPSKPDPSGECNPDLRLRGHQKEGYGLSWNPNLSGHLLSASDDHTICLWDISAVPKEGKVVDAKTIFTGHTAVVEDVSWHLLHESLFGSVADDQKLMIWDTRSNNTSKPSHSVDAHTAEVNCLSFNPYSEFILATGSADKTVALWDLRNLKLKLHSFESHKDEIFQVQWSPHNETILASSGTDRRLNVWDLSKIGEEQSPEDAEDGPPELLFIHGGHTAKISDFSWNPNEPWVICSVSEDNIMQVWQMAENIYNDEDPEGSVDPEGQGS
Sequence of PRC2 complex (EZH2 Y641F/EED/SUZ12/RbAp48/AEBP2) (Q6ZN18 whole entry partner): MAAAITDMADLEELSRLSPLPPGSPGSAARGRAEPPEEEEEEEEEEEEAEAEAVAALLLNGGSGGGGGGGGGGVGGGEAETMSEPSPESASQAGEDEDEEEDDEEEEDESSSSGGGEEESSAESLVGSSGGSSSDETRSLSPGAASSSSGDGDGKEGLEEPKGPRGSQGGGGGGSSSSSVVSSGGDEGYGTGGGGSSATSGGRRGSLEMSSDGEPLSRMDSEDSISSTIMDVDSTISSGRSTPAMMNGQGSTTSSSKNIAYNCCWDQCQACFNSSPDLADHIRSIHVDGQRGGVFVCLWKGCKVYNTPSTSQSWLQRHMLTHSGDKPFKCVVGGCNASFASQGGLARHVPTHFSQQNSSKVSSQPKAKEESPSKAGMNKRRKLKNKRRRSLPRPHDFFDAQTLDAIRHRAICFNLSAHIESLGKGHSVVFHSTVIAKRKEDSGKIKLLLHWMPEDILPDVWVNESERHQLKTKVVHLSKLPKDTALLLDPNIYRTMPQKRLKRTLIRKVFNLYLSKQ

| IC50 [1] [nM] | Compound | IC50 [nM] |
| --- | --- | --- |
| < 100 | Cc1cc(C)c(CNC(=O)c2cc3cccn3c(C(C)OCc3ccnn3C)c2C)c(=O)[nH]1 (stereo not shown) [Example 21] | – |
| < 100 | N-((4,6-dimethyl-2-oxo-1,2-dihydropyridin-3-yl)methyl)-6-methyl-5-(1-morpholinylethyl)-2-(1-ethyl-1H-pyrazole)indolizine-7-carboxamide [Example 113] | – |
| < 100 | Cc1cc(C(F)(F)F)c(CNC(=O)c2cc3c(-c4ccc(N)nc4)ccn3c(C(C)N3CCN(CC(F)(F)F)CC3)c2C)c(=O)[nH]1 (stereo not shown) [Compound 186, 1-(6-aminopyridin-3-yl)-6-methyl-N-((6-methyl-2-oxo-4-(trifluoromethyl)-1,2-dihydropyridine-3-yl)methyl)-5-(1-(4-(2,2,2-trifluoroethyl)piperazin-1-yl)ethyl)indolizine-7-carboxamide] | – |
| < 100 | COc1cc(C)[nH]c(=O)c1CNC(=O)c1cc2c(-c3cnc(C)nc3)ccn2c([C@H](C)N2CCN(CC(F)(F)F)CC2)c1C (single isomer, unassigned) [Compound 197, (S)—N-((4-methoxy-6-methyl-2-oxo-1,2-dihydropyridin-3-yl)methyl)-6-methyl-1-(2-methylpyrimidin-5-yl)-5-(1-(4-(2,2,2-trifluoroethyl)piperazin-1-yl)ethyl)indolizine-7-formamide or (R)—N-((4-methoxy-6-methyl-2-oxo-1,2-dihydropyridin-3-yl)methyl)-6-methyl-1-(2-methylpyrimidin-5-yl)-5-(1-(4-(2,2,2-trifluoroethyl)piperazin-1-yl)ethyl)indolizine-7-formamide] | – |
| < 100 | Cc1cc(C)c(CNC(=O)c2cc3c(Cl)ccn3c(C(C)N3CCOCC3)c2C)c(=O)[nH]1 (stereo not shown) [Example 27, 1-chloro-N-((4,6-dimethyl-2-oxo-1,2-dihydropyridin-3-yl)methyl)-6-methyl-5-(1-morphinolinylethyl)indolizine-7-carboxamide] | – |
| < 100 | Cc1cc(C)c(CNC(=O)c2cc3cc(-c4cncn4C)cn3c(C(C)N3CCN(CC(F)(F)F)CC3)c2C)c(=O)[nH]1 (stereo not shown) [Example 136, N-((4,6-dimethyl-2-oxo-1,2-dihydropyridin-3-yl)methyl)-6-methyl-2-(1-methyl-1H-imidazol-5-yl)-5-(1-(4-(2,2,2-trifluoroethyl)piperazin-1-yl)ethyl)indolizine-7-carboxamide] | – |
| 100 to 1000 | C=CCOC(C)c1c(C)c(C(=O)NCc2c(C)cc(C)[nH]c2=O)cc2cccn12 (stereo not shown) [Example 3] | – |
| 1000 to 10000 | CCOC(C)c1c(C)c(C(=O)NCc2c(C)cc(C)[nH]c2=O)cc2cccn12 (stereo not shown) [Example 2, N-((4,6-Dimethyl-2-oxo-1,2-dihydropyridin-3-yl)methyl)-5-(1-ethoxyethyl)-6-methylindolizine-7-carboxamide] | – |
| < 100 | CCN(c1c(C)c(C(=O)NCc2c(C)cc(C)[nH]c2=O)cc2cc(-c3ccnn3C)cn12)C1CCOCC1 [Example 65, N-((4,6-dimethyl-2-oxo-1,2-dihydropyridin-3-yl)methyl)-5-(ethyl(tetrahydro-2H-pyran-4-yl)amino)-6-methyl-2-(1-methyl-1H-pyrazol-5-yl)indolizin-7-carboxamide] | – |
| 100 to 1000 | Cc1cc(C)c(CNC(=O)c2cc3cccn3c(C(C)OCc3ccncc3)c2C)c(=O)[nH]1 (stereo not shown) [Example 16, N-((4,6-dimethyl-2-oxo-1,2-dihydropyridin-3-yl)methyl)-6-methyl-5-(1-(pyridine-4-ylmethoxy)ethyl)indolizine-7-carboxamide] | – |
| 100 to 1000 | CCN1CCN(C(C)c2c(C)c(C(=O)NCc3c(C)cc(C)[nH]c3=O)cc3cc(Br)cn23)CC1 (stereo not shown) [Example 99, N-((4,6-dimethyl-2-oxo-1,2-dihydropyridin-3-yl)methyl)-6-methyl-5-(1-(4-ethylpiperazine)-1-ethyl)-2-bromoindolizine-7-carboxamide] | – |
| < 100 | CCN(c1c(C)c(C(=O)NCc2c(C)cc(C)[nH]c2=O)cc2cc(-c3cnn(C)c3)cn12)C1CCOCC1 [Example 66, N-((4,6-dimethyl-2-oxo-1,2-dihydropyridin-3-yl)methyl)-5-(ethyl(tetrahydro-2H-pyran-4-yl)amino)-6-methyl-2-(1-methyl-1H-pyrazol-4-yl)indolizin-7-carboxamide] | – |

Second part, the compound before the results:

| Compound | IC50 [1] [nM] | IC50 [nM] |
| --- | --- | --- |
| COc1cc(C)[nH]c(=O)c1CNC(=O)c1cc2c(-c3ccnc(N(C)C)c3)ccn2c([C@H](C)N2CCN(CC(F)(F)F)CC2)c1C (single isomer, unassigned) [Compound 172, (S)-1-(2-(dimethylamino)pyridin-4-yl)-N-((4-methoxy-6-methyl-2-oxo-1,2-dihydropyridine-3-yl)methyl)-6-methyl-5-(1-(4-(2,2,2-trifluoroethyl)piperazin-1-yl)ethyl)indolizine-7-carboxamide or (R) 1-(2-(dimethylamino)pyridin-4-yl)-N-((4-methoxy-6-methyl-2-oxo-1,2-dihydropyridine-3-yl)methyl)-6-methyl-5-(1-(4-(2,2,2-trifluoroethyl)piperazin-1-yl)ethyl)indolizine-7-carboxamide] | 100 to 1000 | – |
| Cc1cc(C)c(CNC(=O)c2cc3cc(-c4ccc(N5CCNCC5)nc4)cn3c(C(C)N3CCOCC3)c2C)c(=O)[nH]1 (stereo not shown) [Example 90, N-((4,6-dimethyl-2-oxo-1,2-dihydropyridin-3-yl)methyl)-6-methyl-5-(1-morpholinoethyl)-2-(6-(piperazin-1-yl)pyridin-3-yl)indolizine-7-carboxamide] | 1000 to 10000 | – |
| CNc1ccc(-c2ccn3c([C@H](C)N4CCN(CC(F)(F)F)CC4)c(C)c(C(=O)NCc4c(OC)cc(C)[nH]c4=O)cc23)cn1 (single isomer, unassigned) [Compound 164, (S)—N-((4-methoxy-6-methyl-2-oxo-1,2-dihydropyridin-3-yl)methyl)-6-methyl-1-(6-(methylamino)pyridin-3-yl)-5-(1-(4-(2,2,2-trifluoroethyl)piperazin-1-yl)ethyl)indolizine-7-formamide or (R)—N-((4-methoxy-6-methyl-2-oxo-1,2-dihydropyridin-3-yl)methyl)-6-methyl-1-(6-(methylamino)pyridin-3-yl)-5-(1-(4-(2,2,2-trifluoroethyl)piperazin-1-yl)ethyl)indolizine-7-formamide] | 100 to 1000 | – |
| 1-(2-chloropyridin-4-yl)-N-((4-methoxy-6-methyl-2-oxo-1,2-dihydropyridin-3-yl)methyl)-6-methyl-5-(1-(4-(2,2,2-trifluoroethyl)piperazin-1-yl)ethyl)indolizine-7-carboxamide [Compound 167] | < 100 | – |
| Cc1cc(=O)c(CNC(=O)c2cc3c(-c4ccc(N)nc4)ccn3c(C(C)N3CCN(CC(F)(F)F)CC3)c2C)c(C)[nH]1 (stereo not shown) [Compound 184, 1-(6-aminopyridin-3-yl)-N-((2,6-dimethyl-4-oxo-1,4-dihydropyridin-3-yl)methyl)-6-methyl-5-(1-(4-(2,2,2-trifluoroethyl)piperazin-1-yl)ethyl)indolizine-7-carboxamide] | – | < 100 |
| COc1cc(C)[nH]c(=O)c1CNC(=O)c1cc2c(-c3ccnn3C)ccn2c(C(C)N2CCOCC2)c1C (stereo not shown) [Example 132, N-((4-methoxy-6-methyl-2-oxo-1,2-dihydropyridin-3-yl)methyl)-6-methyl-1-(1-methyl-1H-pyrazol-5-yl)-5-(1-morpholinylethyl)indolizine-7-carboxamide] | – | < 100 |
| Cc1cc(C)c(CNC(=O)c2cc3cc(-c4cnn(C5CCNCC5)c4)cn3c(C(C)N3CCOCC3)c2C)c(=O)[nH]1 (stereo not shown) [Example 44, N-((4,6-dimethyl-2-oxo-1,2-dihydropyridin-3-yl)methyl)-6-methyl-5-(1-morphinolinylethyl)-2-(1-(piperidin-4-yl)-1H-pyrazol-4-yl)indolizine-7-carboxamide] | < 100 | – |
| Cc1cc(C)c(CNC(=O)c2cc3cc(-c4ccc(CN5CCOCC5)cc4)cn3c(C(C)N3CCOCC3)c2C)c(=O)[nH]1 (stereo not shown) [Example 39, N-((4,6-dimethyl-2-oxo-1,2-dihydropyridin-3-yl)methyl)-6-methyl-5-(1-morphinolinylethyl)-2-(4-(morphinolinylmethyl)phenyl)indolizine-7-carboxamide] | < 100 | – |
| Cc1cc(C)c(CNC(=O)c2cc3cc(-c4ccc(N5CCOCC5)cc4)cn3c(C(C)N3CCOCC3)c2C)c(=O)[nH]1 (stereo not shown) [Example 32, N-((4,6-dimethyl-2-oxo-1,2-dihydropyridin-3-yl)methyl)-6-methyl-5-(1-morphinolinylethyl)-2-(4-morphinolinylphenyl)indolizine-7-carboxamide] | < 100 | – |
| Cc1cc(C)c(CNC(=O)c2cc3cc(-c4cccc(CN5CCOCC5)c4)cn3c(C(C)N3CCOCC3)c2C)c(=O)[nH]1 (stereo not shown) [Example 80, N-((4,6-dimethyl-2-oxo-1,2-dihydropyridin-3-yl)methyl)-5-(1-morpholine-1-ethyl)-6-methyl-2-(3-(morpholinemethylene)phenyl)indolizin-7-amide] | 100 to 1000 | – |
| COc1cccc(-c2cc3cc(C(=O)NCc4c(C)cc(C)[nH]c4=O)c(C)c(C(C)N4CCOCC4)n3c2)c1 (stereo not shown) [Example 96, N-((4,6-dimethyl-2-oxo-1,2-dihydropyridin-3-yl)methyl)-2-(3-methoxyphenyl)-6-methyl-5-(1-morpholinylethyl)indolizine-7-carboxamide] | < 100 | – |
| CNc1cc(-c2ccn3c(C(C)N4CCN(CC(F)(F)F)CC4)c(C)c(C(=O)NCc4c(OC)cc(C)[nH]c4=O)cc23)ccn1 (stereo not shown) [Compound 180, N-((4-methoxy-6-methyl-2-oxo-1,2-dihydropyridin-3-yl)methyl)-6-methyl-1-(2-(methylamino)pyridin-4-yl)-5-(1-(4-(2,2,2-trifluoroethyl)piperazin-1-yl)ethyl)indolizine-7-carboxamide] | – | < 100 |
| Cc1cc(C)c(CNC(=O)c2cc3cc(-c4ccnn4C)cn3c(C(C)N3CCC(N(C)C)CC3)c2C)c(=O)[nH]1 (stereo not shown) [Example 106, N-((4,6-dimethyl-2-oxo-1,2-dihydropyridin-3-yl)methyl)-5-(1-(4-(dimethylamino)piperidine-1-yl)ethyl)-6-methyl-2-(1-methyl-1H-pyrazol-5-yl)indolizine-7-carboxamide] | – | < 100 |

Source: patent US10968215B2 (SHANGHAI HAIHE PHARMACEUTICAL CO., LTD., priority 2016, dated 2021)
